Results published in patent US20250066338A1, “CERTAIN 3-AZABICYCLO[3.1.0]HEXANES AS GLP-1 RECEPTOR MODULATORS” (AstraZeneca AB, priority 2021, published 2025).

What was measured:
human GLP-1R receptor = human GLP-1R receptor (Homo sapiens (Human), UniProt P43220, L260F); test: CHOK1 GLP-1R cAMP Assay; assay type: cell-based; conditions: CHO-K1 cell line stably expressing human GLP-1R; HTRF cAMP; agonist activity
Procedure: A cell line stably expressing the human GLP-1R receptor (NM 002062.5, including the naturally-occurring variant Leu260Phe) in a CHO-K1 (ATCC® CCL-61™) was used for assay.
GLP-1 receptor mediated agonist activity was determined in a cell based assay measuring cyclic adenosine monophosphate (cAMP) levels in cells using Homogeneous Time-Resolved Fluorescence (HTRF) cAMP detection kit (CisBio catalog #62AM4PEC, cAMP Gs Dynamic range kit). The cAMP detection method is based on a competitive immunoassay, in which cAMP produced by the cells and cAMP labeled with the dye d2 compete for binding to a Europium-Cryptate-labeled anti-cAMP antibody. The specific HTRF signal is inversely proportional to the concentration of cAMP.
Compounds were added to individual well in 384 well-assay plates (Greiner #784076) using an Echo (LabCyte) dispenser from 10 mM stocks. Varying concentration of compounds were added to wells, and DMSO was used to normalize each well to a volume of 100 nL. A dose response curve of GLP1(7-36)NH2 (Bachem H-6795) was included in each run. 5 μL of cAMP concentration response standards are applied in specified wells in the assay plates. Cryo-preserved cells are thawed and resuspended in assay buffer pre-heated to 37° C. (20 mM HEPES pH 7.4, lx Hank's Balanced Salt Solution (HBSS, Life Technologies #14065) supplemented with 0.1% (w/v) bovine serum albumin (Sigma, A-7030). Cells were centrifuged at 250*g for 5 min at rt, and resuspended in room tempered assay buffer to a final density of 0.16*10^6 cell/mL, to deliver 800 cells/well. 5 μL of assay buffer with 1 mM 3-isobutyl-1-methylxanthin (IBMX; Sigma cat I-7018) was dispensed per well in assay plates using a multidrop combi (Thermo Scientific) subsequently 5 μL of cell suspension was distributed to relevant wells in the assay using a multidrop dispenser. Assay plates were incubated 20 min at rt.
Detection reagents, Europium-Cryptate-labeled anti-cAMP antibody and cAMP labeled with the dye d2, are diluted in lysis buffer, provided by the manufacturer. 5 μL of each detection reagent is supplemented to each assay well using a multidrop dispenser. Assay plates are incubated in the dark for at least one h. The HTRF signal is measured using the HTRF module (excitation: 337 nm, emission A: 665 nm and emission B: 620 nm) in Pherastar FSX (BMG Labtech).
Raw data were converted to pM cAMP using the cAMP standard curve included in each run. Converted data were further analyzed in Genedata Screener (Genedata) and EC50 determinations were made from agonist dose-response curves analyzed with a curve fitting program using a 4-parameter logistic dose response equation (Equation y=A+((B−A)/1+((C/x)^D))) where A is no stimulation, B is full stimulation, C is the EC50 and D is the Hill slope). The percent effect was determined relative to a saturating concentration of a full GLP-1R agonist (GLP1(7-36)NH2 has 100% effect in this assay setup).

[1] = target: human phosphodiesterase-3A (Homo sapiens (Human), UniProt Q14432); test: PDE3 Assay; assay type: biochemical; conditions: human recombinant enzyme expressed in Sf9 cells; formation of 5'AMP from cAMP
Chain of human phosphodiesterase-3A (Q14432 whole entry): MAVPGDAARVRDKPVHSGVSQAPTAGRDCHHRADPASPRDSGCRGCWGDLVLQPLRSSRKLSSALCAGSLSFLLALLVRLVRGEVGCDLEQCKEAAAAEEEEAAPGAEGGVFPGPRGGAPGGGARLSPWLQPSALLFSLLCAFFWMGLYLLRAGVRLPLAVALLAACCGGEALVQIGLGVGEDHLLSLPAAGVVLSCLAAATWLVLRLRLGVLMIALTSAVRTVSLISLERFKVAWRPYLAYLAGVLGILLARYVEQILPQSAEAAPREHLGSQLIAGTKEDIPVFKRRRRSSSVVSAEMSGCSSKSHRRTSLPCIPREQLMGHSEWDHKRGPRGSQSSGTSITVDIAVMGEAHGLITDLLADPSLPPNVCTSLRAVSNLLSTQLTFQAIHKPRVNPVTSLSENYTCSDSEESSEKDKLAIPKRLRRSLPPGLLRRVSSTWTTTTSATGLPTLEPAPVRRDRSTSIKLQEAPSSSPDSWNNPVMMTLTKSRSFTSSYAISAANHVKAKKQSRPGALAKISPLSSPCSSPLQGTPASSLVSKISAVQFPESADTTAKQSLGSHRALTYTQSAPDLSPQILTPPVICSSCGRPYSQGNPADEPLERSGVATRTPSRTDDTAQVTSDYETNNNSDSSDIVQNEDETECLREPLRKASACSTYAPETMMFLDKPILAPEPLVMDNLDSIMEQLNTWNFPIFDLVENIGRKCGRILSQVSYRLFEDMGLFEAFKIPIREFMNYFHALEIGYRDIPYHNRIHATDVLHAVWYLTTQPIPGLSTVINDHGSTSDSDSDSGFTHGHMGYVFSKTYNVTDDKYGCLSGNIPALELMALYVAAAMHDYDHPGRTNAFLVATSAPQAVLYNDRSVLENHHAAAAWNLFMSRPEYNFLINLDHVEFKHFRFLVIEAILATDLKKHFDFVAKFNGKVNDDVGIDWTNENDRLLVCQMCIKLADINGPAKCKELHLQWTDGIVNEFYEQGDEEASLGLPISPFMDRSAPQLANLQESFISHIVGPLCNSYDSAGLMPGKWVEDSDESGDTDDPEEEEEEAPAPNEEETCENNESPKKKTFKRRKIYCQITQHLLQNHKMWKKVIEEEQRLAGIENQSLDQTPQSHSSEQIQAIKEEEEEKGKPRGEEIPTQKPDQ
Procedure: Evaluation of the effects of compounds on the activity of the human phosphodiesterase-3A is quantified by measuring the formation of 5′AMP from cAMP using a human recombinant enzyme expressed in a clonal isolate of Spodoptera frugiperda cells (Sf9) cells.
The test compound, reference compound or water (control) are added to a buffer containing 40 mM tris(hydroxymethyl)aminomethane (Tris)/HCl (pH 7.4) and 8 mM MgCl2, 450 nMcAMP and 0.25 μCi [^3H]cAMP.
Thereafter, the reaction is initiated by addition of the enzyme (about 1 U) and the mixture is incubated for 20 min at 22° C.
For basal control measurements, the enzyme is omitted from the reaction mixture. Following incubation SPA beads are added. After 30 min at 22° C. under shaking, the amount of [^3H]^+ 5′AMP is quantified with a scintillation counter (Topcount, Packard).
The results are expressed as a percent inhibition of the control enzyme activity. The standard inhibitory reference compound is milrinone (CAS number 78415-72-2), which is tested in each experiment at several concentrations to obtain an inhibition curve from which its IC50 value is calculated.

[2] = target: GLP-1R in EndoC-βH1 cells (Homo sapiens (Human), UniProt P43220); test: EndoC cAMP Accumulation Assay; assay type: cell-based; conditions: EndoC-βH1 human pancreatic beta cell line; HTRF cAMP accumulation
Chain of GLP-1R in EndoC-βH1 cells (P43220 24-463): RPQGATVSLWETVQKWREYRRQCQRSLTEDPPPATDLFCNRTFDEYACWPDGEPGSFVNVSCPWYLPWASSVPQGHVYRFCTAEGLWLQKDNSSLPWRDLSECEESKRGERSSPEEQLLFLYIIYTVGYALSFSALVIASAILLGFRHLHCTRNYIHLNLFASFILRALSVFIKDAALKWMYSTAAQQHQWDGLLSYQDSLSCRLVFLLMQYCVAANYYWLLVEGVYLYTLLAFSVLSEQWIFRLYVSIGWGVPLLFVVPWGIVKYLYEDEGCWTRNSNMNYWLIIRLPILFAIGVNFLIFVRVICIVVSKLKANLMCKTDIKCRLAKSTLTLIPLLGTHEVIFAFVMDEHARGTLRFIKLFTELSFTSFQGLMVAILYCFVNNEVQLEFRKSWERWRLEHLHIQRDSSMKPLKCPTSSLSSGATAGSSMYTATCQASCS
From the text: EndoC cAMP Accumulation Assay
A HTRF cAMP assay (cAMP Gs dynamic kit; CisoBio Cat #62AM4PEJ) was used to identify agonists of GLP-1R in a pancreatic insulinoma cell line (EndoC-βH1). […] EndoC-βH1 cells have detectable GLP-1R messenger ribonucleic acid (mRNA) as detected by quantitative polymerase chain reaction (qPCR). […] The EndoC-βH1 cell line is a valid model of human beta cells and applicable for screenings to identify novel drug target candidates (Mol. Metab., 2018, 8, 144-157). CisBio HTRF cAMP kits are based on a competitive immunoassay using cryptate-labelled anti-cAMP antibody and d2-labeled cAMP. The detection kit is intended for the direct quantitative determination of cAMP. The specific signal (i.e. energy transfer) is inversely proportional to the concentration of cAMP in the standard or sample. Test compounds (10 mM in DMSO) were diluted into assay buffer (HBSS (Sigma #H8264) supplemented with 25 mM HEPES (Gibco #15630, pH 7.4), 0.1% BSA (Sigma #A3059) and 0.5 mM IBMX (Sigma #17018) included fresh on the day of the assay) into 96 well U-bottom plates (Greiner #650201). Diluted compounds were transferred to ECHO source polypropylene plates (Labcyte #P-05525) and dose response curves were dispensed acoustically using ECHO 550 into black shallow-well u-bottom 384-well HTRF Assay Plates (Corning 4514).
Cryovials of EndoC-H1 (supplied at 1×10e^7 cells/vial) were used directly for screening. The cryovials and were removed from N2 (1) and thawed rapidly in a 37° C. water bath. The cells were resuspended in assay buffer and centrifuged at 300 g for 5 min. Cells were resuspended in assay buffer at the appropriate concentration, typically at 12e5 cells per mL (3000 cells per well, dependent on cell batch) and 2.5 μL diluted cells were added to all wells of destination plate by Multidrop combi reagent dispenser (Thermofisher). The plates were incubated at rt for 30 min. The assay was stopped by adding 2.5 μL anti-cAMP cryptate solution to all wells and 2.5 μL cAMP-d2 solution (both diluted 1:20 in lysis buffer) to columns 1-22 by Combi drop. A volume of 2.5 μL cAMP-d2 solution was added to wells E23 to P24 and 2.5 μL lysis buffer added to wells A23 to D24 by multichannel pipette. The plates were incubated at rt for 1 h and read on an Envision plate reader using excitation wavelength of 320 nm and emission of […] and 660 nm.
Raw data from Envision is converted to % DeltaF according to the manufacturer's instructions. Dose response curves are analysed via 4-Parameter Logistical Analysis and assay plate Z′ values obtained. Samples are graphed as percentage (%) activation plots compared to GIP (1-42, Bachem H-5645) with assay window defined by negative control as basal cell cAMP levels and positive control are defined by maximum GIP (82.5 nM) signal. GLP1 (7-36 amide, Bachem H-6795) dose response curve was included on all plates.

Chain of human GLP-1R receptor (P43220 24-463 L260F): as the sequence (P43220 24-463) above, with L237F counted along it

EC50 (human GLP-1R receptor): 19 nM
IC50 [1]: > 100000 nM
EC50 [2]: 9.6 nM
Structure (SMILES): COc1cc(C(=O)O)cc2c1nc(CN1C[C@@H]3[C@H](C1)[C@H]3c1nc(OCc3ccc(Cl)cc3F)ccc1C)n2C[C@@H]1CCO1 [Example 19, 2-(((1R,5S,6S)-6-(6-((4-Chloro-2-fluorobenzyl)oxy)-3-methylpyridin-2-yl)-3-azabicyclo[3.1.0]hexan-3-yl)methyl)-4-methoxy-1-(((S)-oxetan-2-yl)methyl)-1H-benzo[d]imidazole-6-carboxylic acid]
